{
  "source": "paper PMC2997783",
  "about": "“Genetic and Chemical Evaluation of Trypanosoma brucei Oleate Desaturase as a Candidate Drug Target” (PLoS ONE, 2010)",
  "key": {"oleate desaturase (OD)": {"target": "T1, oleate desaturase (OD) (Trypanosoma brucei, UniProt Q6UCJ6)", "T1 construct": "native full-length enzyme in intact T. brucei cells", "T1 sequence (Q6UCJ6 1-408)": "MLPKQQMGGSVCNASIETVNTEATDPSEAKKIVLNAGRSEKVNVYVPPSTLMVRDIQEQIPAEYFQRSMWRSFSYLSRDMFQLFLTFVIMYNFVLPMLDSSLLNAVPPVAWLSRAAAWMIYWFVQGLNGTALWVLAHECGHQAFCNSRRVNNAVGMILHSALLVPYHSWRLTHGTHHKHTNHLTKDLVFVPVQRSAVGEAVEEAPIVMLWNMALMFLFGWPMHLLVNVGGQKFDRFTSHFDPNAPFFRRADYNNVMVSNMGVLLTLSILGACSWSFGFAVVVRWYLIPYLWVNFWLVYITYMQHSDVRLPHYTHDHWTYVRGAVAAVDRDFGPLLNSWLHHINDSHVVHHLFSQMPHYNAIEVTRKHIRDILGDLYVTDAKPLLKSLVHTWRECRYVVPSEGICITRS", "assay": "whole-cell […]-oleate desaturation, argentation-TLC and scintillation counting", "format": "cell-based", "details": "intact bloodstream-form cells; 50 µM 13-TS, 30 min preincubation, 60 min with [14C]-oleate; may act as a metabolite of the added acid"}, "[1]": {"target": "T2, stearoyl-CoA desaturase (SCD) (Trypanosoma brucei, UniProt Q57YK1)", "T2 construct": "gene Tb08.11J15.870; native enzyme in intact bloodstream-form cells; carries a cytochrome b-like domain", "T2 sequence (Q57YK1 1-431)": "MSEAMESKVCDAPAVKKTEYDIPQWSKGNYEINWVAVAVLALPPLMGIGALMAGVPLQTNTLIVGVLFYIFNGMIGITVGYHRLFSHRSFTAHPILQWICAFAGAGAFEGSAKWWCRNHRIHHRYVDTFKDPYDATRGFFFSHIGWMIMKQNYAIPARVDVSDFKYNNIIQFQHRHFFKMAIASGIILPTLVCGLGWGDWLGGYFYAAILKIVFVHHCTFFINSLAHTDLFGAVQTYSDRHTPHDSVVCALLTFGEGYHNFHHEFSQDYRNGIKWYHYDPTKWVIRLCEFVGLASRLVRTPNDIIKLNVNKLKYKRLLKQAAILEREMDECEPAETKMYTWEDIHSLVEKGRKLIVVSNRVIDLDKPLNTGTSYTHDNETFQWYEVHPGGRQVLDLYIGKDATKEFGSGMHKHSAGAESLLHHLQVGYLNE", "assay": "whole-cell […]-stearate desaturation, argentation-TLC and scintillation counting", "format": "cell-based", "details": "intact bloodstream-form cells; 50 µM 13-TS, 30 min preincubation, 60 min with [14C]-stearate; may act as a metabolite of the added acid"}},
  "data": [
    {"smiles": "CCCCCSCCCCCCCCCCCC(=O)O", "note": "[13-TS, 13-thiastearic acid]", "values": [
      {"measurement": "% conversion of oleate to linoleate with 50 μM inhibitor (control 20.4%)", "setting": "oleate desaturase (OD)", "value": 7.7, "unit": "%"},
      {"measurement": "% conversion of stearate to oleate with 50 μM inhibitor (control 23.1%)", "setting": "[1]", "value": 19, "unit": "%"}
    ]}
  ]
}
